Experiments:
[1] = biological target: T1, RXRα protein (ligand binding domain (LBD)) [RXRα蛋白质(配体结合域(LBD))] (Homo sapiens, UniProt P19793); assay: RXR binding of RXR ligands evaluated with compound 10 as fluorescent probe (Example 13); conditions: RXRα-LBD 100 nM, compound 10 100 nM; from EC50 by Cheng-Prusoff equation
T1 construct: 关于RXRα蛋白质(配体结合域(LBD)),将Active Motif社制的物质以100nM使用; purchased Active Motif
T1 sequence (P19793 227-458 limits assumed): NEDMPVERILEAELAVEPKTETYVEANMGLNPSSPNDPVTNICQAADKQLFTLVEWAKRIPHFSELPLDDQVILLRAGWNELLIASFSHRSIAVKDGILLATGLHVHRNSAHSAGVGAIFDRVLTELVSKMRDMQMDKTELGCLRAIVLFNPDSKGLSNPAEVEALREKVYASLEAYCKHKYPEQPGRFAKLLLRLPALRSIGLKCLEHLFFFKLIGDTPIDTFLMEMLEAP

[2] = test system: retinoid X receptor (RXR) [类视黄醇X受体]; assay: Luciferase reporter gene assay for RXR transcriptional activation (Example 9); format: cell-based; conditions: COS-1 cells; for RXR agonist activity: relative to transcriptional activity with 1 μM bexarotene set to 1
[3] = biological target: T1, RXRα protein (ligand binding domain (LBD)) [RXRα蛋白质(配体结合域(LBD))]; assay: Detection of RXR binding of RXR ligands with compound 44 (Example 15); conditions: test compound 1 μM, compound 44 30 nM, RXRα-LBD 100 nM
[4] = biological target: T2, full-length RXRα protein [全长RXRα蛋白质] (Homo sapiens, UniProt P19793); assay: Combined assay: RXR activation by fluorescence polarization of fluorescein-PGC1a coactivator peptide (Example 16); format: biochemical; conditions: test compound 10 μM, full-length RXRα 3 μM, compound 10 3 μM, fluorescein-PGC1a 30 nM
T2 construct: 全长RXRα蛋白质使用3μM
T2 sequence (P19793 1-462): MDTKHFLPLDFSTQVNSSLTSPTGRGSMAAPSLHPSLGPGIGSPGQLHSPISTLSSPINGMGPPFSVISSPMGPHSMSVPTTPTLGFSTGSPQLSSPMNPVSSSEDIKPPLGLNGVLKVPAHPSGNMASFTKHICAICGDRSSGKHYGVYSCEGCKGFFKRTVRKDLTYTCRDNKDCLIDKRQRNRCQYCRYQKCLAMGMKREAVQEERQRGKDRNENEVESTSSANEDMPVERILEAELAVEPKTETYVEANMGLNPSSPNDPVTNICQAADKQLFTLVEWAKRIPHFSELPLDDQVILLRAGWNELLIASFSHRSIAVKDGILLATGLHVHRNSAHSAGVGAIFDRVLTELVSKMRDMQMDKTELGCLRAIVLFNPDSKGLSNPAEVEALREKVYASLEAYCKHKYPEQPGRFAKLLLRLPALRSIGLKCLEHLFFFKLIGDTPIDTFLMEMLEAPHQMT

NFκB = conditions: LPS 1 ng/mL, 24 h; relative to LPS without test compound as 100%
[5] = Blood concentration after oral administration to mice (Example 17); format: in vivo; conditions: mouse (male ICR, 6 weeks)

Cc1cc2c(cc1-n1c(C(F)(F)F)nc3cc(C(=O)O)ccc31)C(C)(C)CCC2(C)C [CBTF-PMN]
Ki [1]: 73 nM

CCCCCOc1cc2c(cc1-c1cc3cc(C(=O)O)c(=O)oc3cc1O)C(C)(C)CCC2(C)C [化合物23c]
RXR antagonist activity ([2]; in the presence of the RXR agonist NEt-TMN (printed for compound 44; others tested similarly)): 确认到RXR拮抗剂活性

CCN(c1ccc(C(=O)O)cn1)c1cc(OCC(C)C)c(C(C)C)cc1/C=C/c1ccccc1 [NEt-SB]
change of fluorescence intensity of compound 44 by test compound [3]: 荧光强度减少

CCCCCCOc1cc2c(cc1N(C)c1ncc(C(=O)O)cn1)C(C)(C)CCC2(C)C [PA452]
fluorescence polarization of fluorescein-PGC1a [4]: 减少 | Ki [1]: 108 nM

Cc1cc(OC(C)C)c(C(C)C)cc1-c1cc2cc(C(=O)O)c(=O)oc2cc1O [化合物30]
RXR agonist activity [2]: 确认到RXR激动剂活性

CCCOc1cc2c(cc1-c1cc3cc(C(=O)O)c(=O)oc3cc1O)C(C)(C)CCC2(C)C [化合物23b]
RXR agonist activity [2]: 确认到RXR激动剂活性

COc1cc2c(cc1-c1cc3cc(C(=O)O)c(=O)oc3cc1O)C(C)(C)CCC2(C)C [化合物23a]
RXR agonist activity [2]: 确认到RXR激动剂活性

Cc1cc2c(cc1-c1cc3cc(C(=O)O)c(=O)oc3cc1O)C(C)(C)CCC2(C)C [化合物10]
SEAP activity / inhibitory activity on NFκB transcriptional activity (NFκB): 抑制SEAP活性,显示对于NFκB的抑制活性 | concentration at 0.5 h ([5]; in vivo, 30 mg/kg oral, 0.5 h after administration): ~3000 nM | disappearance from blood ([5]; 30 mg/kg oral, 0.5, 1, 3 and 6 h): 时间依赖性地从血液中消失
